Assay [1] has as its system pancreatic cancer cell lines (PANC-1, CFPAC-1, CAPAN-1, MIAPaCa-2, BXPC-3). The assay is described as follows: Sulforhodamine B (SRB) cytotoxicity assay on pancreatic cancer cell lines. In kind it is cell-based, human. The settings on record: increasing concentration, 72 h. The procedure: PANC-1, CFPAC-1, CAPAN-1, MIAPaCa-2, BXPC-3 and fibroblast cells were seeded for 24 h and were exposed to increasing concentration of Pimozide and vehicle for 72 h (FIG. 3A). The same procedure was followed for treatment of cancer cell lines with L741 (FIG. 3B). Cell viability was characterized using a SRB assay. Values are the mean+/−SD of six independent experiments.
Five pancreatic ductal cancer cell lines with various degree of differentiation were obtained from American Type Culture Collection (Rockville, USA) and Normal Human Dermal Fibroblasts (NHDF) obtained from PromoCell. BXPC-3 (moderately differentiated) as well as poorly differentiated human pancreatic cancer cell lines, PANC-1 and MIAPaCa-2, have been established from primary tumor. AsPC-1, CAPAN-1 and CFPAC-1 which represent well differentiated cell lines was isolated from ascites and liver metastasis of pancreas adenocarcinoma. All cell lines contain mutation in P53 whereas K-ras mutation reported in all with the exception of BxPc3. BRCA2 mutation just reported in CAPAN-1 cells.
Sulforhodamine B sodium salt (sigma) was used to assess cell viability and IC50 determination of pancreatic cancer cells. […] Cell viability was specified by using plate reader (TECAN) with measuring of absorbance at 570 and 650 nm (background) in treated or untreated 96 well plate.
(In SRB staining, fixed cells bind dye roughly in proportion to their protein.)

The next assay has as its system PANC-1 cells. The assay is described as follows: Wound healing (scratching) assay for cell migration. In kind it is cell-based, human. The settings on record: PANC-1, increasing concentrations, 10 h. The procedure:
PANC-1 cells were plated in the chamber were already attached in 12 well plate and allowed to grow for 24 h. Then, a wound was made in the confluent monolayer by removing the chamber. Cells were exposed to increasing concentration of Pimozide (FIG. 6A) or L741 (FIG. 6B) and vehicle for 10 h. Wound gap closure was measured for each drug concentration by comparing the gap at time 0 h to the one at the time 10 h when the gap closed in negative control and normalized to untreated condition.
PANC-1 cells were seeded into the 35 mm-dish culture-silicon Insert frames from Ibidi where already attached to the 6 well culture plate. When 96-98% confluency was achieved, the insert frames were removed using sterile forceps to reach cell free gap. To create a reference point for subsequent measurements, three different part of the gap was marked on the underside of the plastic. Floating cells and cell debris were washed using PBS, relative culture medium was added to each wells and migration distance was photographed using a Zeiss Axiovert 24 light microscope at zero time in the marked areas. Afterward, the wells were treated by addition of DMSO as control and different increasing concentration of Pim and L741. Plates were then placed into the incubator and the cells were allowed to migrate until the time when the gap for the […] closed (t time). Images were taken from the marked areas again. This assay was performed employing various concentrations of drugs at which maximum 5% viability inhibition was observed after 10 h treatment.

The subject of assay [2] is KPC-023, KPC-01 and KPC-LM pancreatic cancer cell lines. The assay is described as follows: Viability of primary and metastatic pancreatic cancer cell lines isolated from KPC mice. In kind it is cell-based. The settings on record: primary (KPC-023, KPC-01) and metastatic (KPC-LM) lines.
For the next assay, the system named is pituitary tumor cells. The settings on record: after treatment; cited from earlier work.
The subject of the next assay is MIAPaCa-2 xenograft. Briefly: Combination therapy in NSG mice, MIAPaCa-2 xenograft model. In kind it is in vivo. The note with it: i.p. 16 days; pimozide 10 mg/kg daily; gemcitabine 20 mg/kg every 4 days.
Assay [3] deals with locally advanced, unresectable, or metastatic pancreatic adenocarcinoma. The note with it: patients with locally advanced; cited from earlier work.
In the next assay the test system is MIAPaCa-2 cells. Briefly: Orthotopic pancreatic tumor mouse model treated with DRD2 antagonists. In kind it is in vivo, mice. The note with it: compared to vehicle. The procedure: Two million MIAPaCa-2 cells were resuspended in 10 μL Matrigel (BD Biosciences, San Jose, Calif.) were orthotopically implanted into the tail of the pancreas of 6-week-old Nod scid gamma animals (Jackson Labs, Bar Harbor, Me.) (day 1). When tumors were palpable (day 27), mice were randomized into 2 groups (n=7 in control group and n=9 in haloperidol group) and injected intraperitoneally with either haloperidol (10 mg/kg) or solvent (dimethylsulfoxide [DMSO] control group) for 12 days. The experiment was terminated when control mice appeared moribund. Weight of the animal and final tumor weight and volume were measured.

The test system of assay [4] is MIAPaCa-2, PANC-1 and AsPC-1 cells. The assay is described as follows: Glucose uptake measurement (labelled 2-DG) in PDAC cell lines. The note with it: all three cell lines; relative to DMSO control. In kind it is cell-based, human. From the text: (§1) Measurement of 2-deoxy-D-glucose uptake shown on the y-axis relative to control by PDAC cell lines (MIAPaCa2, left; PANC-1, middle; AsPC1, right) treated with DMSO (C), pimozide (P) or haloperidol (H) (FIG. 10A). Abundance of free cholesterol, as measured by staining with filipin, after treatment with haloperidol (H) or pimozide (P) in PDAC cell lines (MIAPaCa2, left; PANC-1, middle; AsPC1, right) (FIG. 10B top). Representative micrographs of filipin-labelled cholesterol. PDAC (MIAPaCa2, top; PANC-1, middle; AsPC1, bottom) cells were seeded for 24 hours and treated with 10 μM haloperidol (H) or pimozide (P) or DMSO for 18 hours (FIG. 10B bottom). Red-fluorescence represents propidium iodide (PI)-stained nuclei and blue-fluorescence represents filipin-stained cholesterol. mRNA levels of genes relative to R-actin shown on the y-axis involved in cholesterol biosynthesis (from left to right: SREBP1, SREBP2, INSIG1, HMGCR, LDLR) measured by qRT-PCR 18 hours post-treatment with DMSO (C), haloperidol (H) or pimozide (P) in three PDAC cell lines (MIAPaCa2, top; PANC-1, middle; AsPC1, bottom) (FIG. 10C).
The induction effect of pimozide or haloperidol on labeled 2-DG uptake in cancer cells were determined from measurement of the fluorescence intensity of cell lysates. […]

For assay [5] the test system is unchanged. The assay is described as follows: Free cholesterol measurement (Filipin staining) in PDAC cell lines. In kind it is cell-based, human. The note with it: 10 μM, 18 hours; vs DMSO.
Description: as §1
Cancer cells were seeded for 24 hours and treated with pimozide, haloperidol or DMSO for 18 hours. The cells were fixed with paraformaldehyde, stained with Filipin™ and propidium iodide (PI), and photographed. Filipin™ is a fluorescent polyene antibiotic that binds to free cholesterol. […]

For assay [6], the system named is SREBP1, SREBP2, INSIG1, HMGCR, LDLR mRNA. The assay is described as follows: qRT-PCR of cholesterol biosynthesis genes in PDAC cell lines. In kind it is cell-based, human. The settings on record: qRT-PCR 18 hours post-treatment; relative to actin.
Description: as §1
For mice xenograft tissue samples and cultured cells, the miRNeasy kit (Qiagen, Valencia, Calif.) was used to extract total RNA. […] Quantification values were calculated according to a standard curve method created from a dilution series. […]
Background: Quantitative PCR measures a nucleic acid by following its amplification.

For assay [7], the system named is PANC-1, MIAPaCa-2 and AsPC-1 cell lines. The assay is described as follows: PDAC cell line growth curves under combination therapy. In kind it is cell-based, human. The settings on record: over time. From the text: FIGS. 11A and 11B show PDAC cell line growth curves following combination therapy with DRD2 antagonists, 2-deoxy-D-glucose, and atorvastatin. Percentage cell growth shown on the y-axis following treatment with control (blue line), pimozide (Pim, gray line), atorvastatin and 2-deoxy-D-glucose (ATR+2-DG, red line) and combination of Pim and ATR+2-DG (green line) over time in PANC-1 (top), MIAPaCa-2 (middle) and AsPC-1 (bottom) cell lines (FIG. 11A). Haloperidol (Hal, gray line) is used as the DRD2 antagonist for use alone or in combination with ATR+2-DG as described in A (FIG. 11B). Dosage are indicated for each cell line.
PDAC cell proliferation was measured during pharmacological inhibition of DRD2 alone and in combination with blockade of glycolysis and cholesterol synthesis. To suppress glycolysis, 2-DG, a glucose analog which is a competitor inhibitor of glucose metabolism, was used. To inhibit cholesterol synthesis, atorvastatin (ATR), a competitive inhibitor of 3-hydroxy-3-methylglutaryl-coenzyme A (HMG-CoA) reductase in the cholesterol biosynthesis pathway was used.

Entries after “also recorded” stand apart in the source; their conditions may differ.

Description for MIAPaCa-2 xenograft: Tumor volumes normalized to initial measurement shown in the y-axis every four days following treatment with either vehicle (gray line), the chemotherapeutic gemcitabine (green line), a combination therapy of 2-deoxy-D-glucose, atorvastatin and pimozide (2DG+ATR+Pim, redline), or a combination therapy of 2DG+ATR+Pim and gemcitabine (2DG+ATR+Pim+Gem, red dashed line) (FIG. 12A). […] Tumor weight (FIG. 12C) and volume of samples (FIG. 12D) harvested following treatment with, from left to right, control (Vehicle), 2DG+ATR, Pim alone, Pim+2DG+ATR, Gem alone, 2DG+ATR+Gem, Pim+Gem, or Pim+2DG+ATR+Gem.
NOD severe combined immunodeficiency gamma (NSG) mice were subcutaneously injected in the right flank with five million MIAPaCa-2 cells. Once tumors were detectable (200 mm^3), mice were randomized into 8 groups (5 in each group) and treated through intraperitoneal injection as indicated for 16 days. All drugs were given every day whereas gemcitabine was given every 4 days, alone or in combination. Experiment was terminated when control animals became moribund. The growth of tumors was measured every 4 days. Tumors were harvested and photographed. Tumor weights and volumes were measured.
The efficacy of the combined treatment approach was investigated using a MIAPaCa-2 xenograft model of pancreatic cancer.

Take `OC1(c2ccc(Cl)cc2)CCN(Cc2c[nH]c3ccccc23)CC1` [L-741,626]: in [1], the “cell viability of pancreatic cancer cell lines” value is on record as “Specific toxicity effect; also recorded: dose dependent toxicity effect”. For the same compound, the “tumor cell migration (wound gap closure)” value is “tumor cell migration was affected” in the assay with PANC-1 cells and “dose dependent inhibitory effect” in the assay with PANC-1 cells (listed as L741). Further, the “viability of KPC mouse pancreatic cancer cell lines” value in assay [2] is given as “sensitive; also recorded: Dose-dependent effects”.
Take `NCCc1ccc(O)c(O)c1` [dopamine]: the cancer cell viability result in the assay with pituitary tumor cells is “decreased significantly”.
Turning to `Nc1ccn([C@@H]2O[C@H](CO)[C@@H](O)C2(F)F)c(=O)n1` [gemcitabine, 4-amino-1-[(2R,4R,5R)-3,3-difluoro-4-hydroxy-5-(hydroxymethyl)oxolan-2-yl]pyrimidin-2-one], in the assay with MIAPaCa-2 xenograft, the tumor volume entry is “reduced tumor weight and volume”; the tumor weight result was “reduced tumor weight”. In addition, in [3], the 1-year survival rate is reported as 21% and the “median overall survival (OS)” value was 6 months.
Take `O=C(CCCN1CCC(O)(c2ccc(Cl)cc2)CC1)c1ccc(F)cc1` [haloperidol]: the metastatic dissemination result with MIAPaCa-2 cells is reported as “reduces tumor volume, metastasis”. Further, in the assay with MIAPaCa-2 cells (haloperidol 10 mg/kg intraperitoneally for 12 days), the tumor volume result is “reduces tumor volume”. In assay [2], the “viability of KPC mouse pancreatic cancer cell lines” value is “sensitive; also recorded: Dose-dependent effects”. In addition, in [4], the “glucose uptake (intracellular labelled 2-deoxy-D-glucose)” value is “elevated uptake of glucose; also recorded: enhanced glucose and cholesterol uptake”. The “abundance of free cholesterol (Filipin staining)” value in assay [5] was “increased the abundance of free cholesterol; also recorded: enhanced glucose and cholesterol uptake”. Moreover, in assay [6], the “expression of genes involved in lipogenesis / cholesterol biosynthesis” value is given as “inducing expression of genes involved in lipogenesis”. Further, the cell growth result in assay [7] is “reduced cell growth”.

These data come from patent US10874685B2, “Pancreatic cancer therapy and diagnosis” (Deutsches Krebsforschungszentrum Stiftung des Öffentlichen …, priority 2014, dated 2020).
